Assay results taken from patent US11648254B2 (Kumquat Biosciences Inc., priority 2021, dated 2023).
Read-outs that look alike come from different tables or passages of the source.

Legend:
[1] = system: NCI-H1975 cells (EGFR T790M L858R); assay: EGFR-SOS cellular inhibition assay (CellTiter-Glo, 3D); type: cell-based; conditions: Homo sapiens
[2] = Metabolic (microsomal) stability assay; type: in vitro ADME; conditions: mouse liver microsomes, T1/2; read-out: DMPK-invitro-metabolic Stability (Mouse T1/2)
From the text: Example 12: Metabolic (Microsomal) Stability Assay

SOS1 = SOS1 (Homo sapiens (Human), UniProt Q07889); assay: Ras-SOS interaction assay (HTRF); type: biochemical
[3] = system: MIA PaCa-2 cells (K-Ras G12C); assay: Ras-SOS cellular growth inhibition assay (CellTiter-Glo, 3D); type: cell-based; conditions: Homo sapiens
In short: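 MIA PaCa-2 cells grown in ultra-low-attachment plates (3D) in DMEM/Ham's F12 with 10% FCS and 2.5% horse serum, treated the day after seeding with a 9-point 3-fold compound series for about 5 days. Viability by CellTiter-Glo luminescence; IC50 from four-parameter fit.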

[4] = In vitro plasma protein binding (PPB); type: in vitro ADME; conditions: percentage of free/unbound compound
[5] = 120 h, NCI-H1975, 3D proliferation, about 5 days, read-out: Bio-Cell-Prolif-3D (H1975 IC50)
[6] = NCI-H1975, EGFR T790M L858R, read-out: IC50 in inhibiting growth of NCI-H1975 cell line
[7] = K-RasG13D utilized, read-out: IC50 inhibition of SOS
[8] = MIA PaCa-2, 120 h, MIA PaCa-2, 3D proliferation, about 5 days, read-out: Bio-Cell-Prolif-3D (MiaPaca2 IC50)
[9] = MIA PaCa-2, MIA PaCa-2, read-out: IC50 in inhibiting MIA PaCa-2 cell growth
[10] = K-RasG13D, read-out: IC50 value against SOS1

SOS1, sequence (Q07889 564-1049): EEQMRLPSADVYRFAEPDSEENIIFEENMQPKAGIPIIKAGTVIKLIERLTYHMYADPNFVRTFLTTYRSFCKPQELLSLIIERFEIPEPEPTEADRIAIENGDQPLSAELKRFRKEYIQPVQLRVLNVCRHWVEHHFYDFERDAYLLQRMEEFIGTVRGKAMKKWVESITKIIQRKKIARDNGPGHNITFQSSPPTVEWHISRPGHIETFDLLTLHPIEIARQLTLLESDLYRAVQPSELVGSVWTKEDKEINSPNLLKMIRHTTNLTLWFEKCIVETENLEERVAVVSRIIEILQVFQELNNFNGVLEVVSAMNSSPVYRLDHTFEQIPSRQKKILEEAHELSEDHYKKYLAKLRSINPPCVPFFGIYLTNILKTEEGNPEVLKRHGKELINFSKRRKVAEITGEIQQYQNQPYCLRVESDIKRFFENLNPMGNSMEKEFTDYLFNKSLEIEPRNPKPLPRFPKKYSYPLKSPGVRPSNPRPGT

IC50 [1, 5] [nM] | IC50 [1, 6] [nM] | half-life [2] [h] | IC50 (SOS1; [7]) [nM] | IC50 [3, 8] [nM] | IC50 [3, 9] [nM] | IC50 (SOS1; [10]) [nM] | DMPK-invitro-PPB (Mouse Unbound) [%] [4] [%] | Structure (SMILES)
≤ 1000 | < 500 | > 3.33 | < 100 | ≤ 1000 | < 500 |  |  | Cc1nc(N[C@H](C)c2cccc(C(F)(F)C(C)(C)O)c2F)c2cc(C3(C#N)CC3)c(Cl)nc2n1 [Compound 170, (R)-1-(7-chloro-4-((1-(3-(1,1-difluoro-2-hydroxy-2-methylpropyl)-2-fluorophenyl)ethyl)amino)-2-methylpyrido[2,3-d]pyrimidin-6-yl)cyclopropane-1-carbonitrile]
≤ 1000 | < 500 | > 3.33 | < 100 | ≤ 1000 | < 500 | < 50 |  | Cc1nc(N[C@H](C)c2cccc(C(F)(F)C(C)(C)O)c2)c2cc(C3(C#N)CC3)c(Cl)nc2n1 [Compound 193, (R)-1-(7-chloro-4-((1-(3-(1,1-difluoro-2-hydroxy-2-methylpropyl)phenyl)ethyl)amino)-2-methylpyrido[2,3-d]pyrimidin-6-yl)cyclopropane-1-carbonitrile]
≤ 1000 |  | 0.352 | < 100 | ≤ 1000 | < 500 | < 50 |  | Cc1nc(N[C@H](C)c2cccc(C(F)(F)CO)c2F)c2cc(C3(C#N)CC3)c(Cl)nc2n1 [Compound 195, (R)-1-(7-chloro-4-((1-(3-(1,1-difluoro-2-hydroxyethyl)-2-fluorophenyl)ethyl)amino)-2-methylpyrido[2,3-d]pyrimidin-6-yl)cyclopropane-1-carbonitrile]
≤ 1000 | < 500 | 2.57 | < 100 | ≤ 1000 |  | < 50 |  | C[C@@H](Nc1ncnc2nc(Cl)c(C3(C#N)CC3)cc12)c1cccc(C(F)F)c1F [Compound 200, (R)-1-(7-chloro-4-((1-(3-(difluoromethyl)-2-fluorophenyl)ethyl)amino)pyrido[2,3-d]pyrimidin-6-yl)cyclopropane-1-carbonitrile]
≤ 1000 | < 500 | > 3.33 | < 100 | ≤ 1000 | < 500 | < 50 |  | C[C@@H](Nc1ncnc2nc(Cl)c(C3(C#N)CC3)cc12)c1cccc(C(F)(F)[C@@H](C)O)c1 [Compound 214, 1-(7-chloro-4-(((R)-1-(3-((R)-1,1-difluoro-2-hydroxypropyl)phenyl)ethyl)amino)pyrido[2,3-d]pyrimidin-6-yl) cyclopropane-1-carbonitrile]
≤ 1000 | < 500 | 1.65 | < 100 | ≤ 1000 | < 500 | < 50 |  | Cc1nc(N[C@H](C)c2cccc(C(F)(F)[C@@H](C)O)c2)c2cc(C3(C#N)CC3)c(Cl)nc2n1 [Compound 219, 1-(7-chloro-4-(((R)-1-(3-((R)-1,1-difluoro-2-hydroxypropyl)phenyl)ethyl)amino)-2-methylpyrido[2,3-d]pyrimidin-6-yl)cyclopropane-1-carbonitrile]
≤ 1000 | < 500 | 1.67 | < 100 | ≤ 1000 | < 500 | < 50 |  | Cc1nc(N[C@H](C)c2cccc(C(F)(F)[C@H](C)O)c2)c2cc(C3(C#N)CC3)c(Cl)nc2n1 [Compound 220, 1-(7-chloro-4-(((R)-1-(3-((S)-1,1-difluoro-2-hydroxypropyl)phenyl)ethyl)amino)-2-methylpyrido[2,3-d]pyrimidin-6-yl)cyclopropane-1-carbonitrile]
≤ 1000 | < 500 | 0.703 | < 100 | ≤ 1000 |  | < 50 |  | Cc1nc(N[C@H](C)c2cccc(C(F)F)c2F)c2cc(C3(C#N)CC3)c(OC3CN(C)C3)nc2n1 [Compound 234, (R)-1-(4-((1-(3-(difluoromethyl)-2-fluorophenyl)ethyl)amino)-2-methyl-7-((1-methylazetidin-3-yl)oxy)pyrido[2,3-d]pyrimidin-6-yl)cyclopropane-1-carbonitrile]
≤ 1000 |  | 0.025 | 100 to 1000 | ≤ 1000 |  |  |  | Cc1nc(N[C@H](C)c2cccc(C(F)F)c2F)c2cc(C3(C#N)CC3)c(O[C@@H]3CCOC3)nc2n1 [Compound 298, 1-(4-(((R)-1-(3-(difluoromethyl)-2-fluorophenyl)ethyl)amino)-2-methyl-7-(((R)-tetrahydrofuran-3-yl)oxy)pyrido[2,3-d]pyrimidin-6-yl)cyclopropane-1-carbonitrile]
≤ 1000 | < 500 | 0.517 | < 100 | ≤ 1000 | < 500 | < 50 |  | Cc1nc(N[C@H](C)c2cccc(C(F)F)c2F)c2cc(C3(C#N)CC3)c(Cl)nc2n1 [Compound 352, (R)-1-(7-chloro-4-((1-(3-(difluoromethyl)-2-fluorophenyl)ethyl)amino)-2-methylpyrido[2,3-d]pyrimidin-6-yl)cyclopropane-1-carbonitrile]
≤ 1000 | < 500 | > 3.33 | < 100 | 1000 to 10000 |  | < 50 |  | C[C@@H](Nc1ncnc2nc(Cl)c(C3(C#N)CC3)cc12)c1cccc(C(F)(F)C(C)(C)O)c1F [Compound 361, (R)-1-(7-chloro-4-((1-(3-(1,1-difluoro-2-hydroxy-2-methylpropyl)-2-fluorophenyl)ethyl)amino)pyrido[2,3-d]pyrimidin-6-yl)cyclopropane-1-carbonitrile]
≤ 1000 | < 500 | 0.817 | < 100 | 1000 to 10000 |  | < 50 |  | C[C@@H](Nc1ncnc2nc(Cl)c(C3(C#N)CC3)cc12)c1cccc(C(F)(F)CO)c1F [Compound 362, (R)-1-(7-chloro-4-((1-(3-(1,1-difluoro-2-hydroxyethyl)-2-fluorophenyl)ethyl)amino)pyrido[2,3-d]pyrimidin-6-yl)cyclopropane-1-carbonitrile]
≤ 1000 | < 500 | > 3.33 | < 100 | ≤ 1000 | < 500 | < 50 |  | C[C@@H](Nc1ncnc2nc(Cl)c(C3(C#N)CC3)cc12)c1cccc(C(F)(F)C(C)(C)O)c1 [Compound 363, (R)-1-(7-chloro-4-((1-(3-(1,1-difluoro-2-hydroxy-2-methylpropyl)phenyl)ethyl)amino)pyrido [2,3-d]pyrimidin-6-yl)cyclopropane-1-carbonitrile]
≤ 1000 | < 500 | > 3.33 | < 100 | ≤ 1000 |  | < 50 |  | C[C@@H](Nc1ncnc2nc(Cl)c(C3(C#N)CC3)cc12)c1cccc(C(F)(F)[C@@H](C)O)c1F [Compound 365, 1-(7-chloro-4-(((R)-1-(3-((R)-1,1-difluoro-2-hydroxypropyl)-2-fluorophenyl)ethyl)amino)pyrido [2,3-d]pyrimidin-6-yl)cyclopropane-1-carbonitrile]
≤ 1000 | < 500 |  |  | ≤ 1000 | < 500 | < 50 | 0.45 | COc1nc2ncnc(N[C@H](C)c3cccc(C(F)(F)F)c3C)c2cc1C1CCN(C2CCOCC2)CC1 [Compound 374, (R)-7-methoxy-N-(1-(2-methyl-3-(trifluoromethyl)phenyl)ethyl)-6-(1-(tetrahydro-2H-pyran-4-yl)piperidin-4-yl)pyrido[2,3-d]pyrimidin-4-amine]
≤ 1000 | < 500 |  | < 100 | ≤ 1000 | < 500 | < 50 | 2.67 | COc1nc2ncnc(N[C@H](C)c3cccc(C(F)(F)F)c3F)c2cc1C1CCS(=O)(=O)CC1 [Compound 375, (R)-4-(4-((1-(2-fluoro-3-(trifluoromethyl)phenyl)ethyl)amino)-7-methoxypyrido[2,3-d]pyrimidin-6-yl)tetrahydro-2H-thiopyran 1,1-dioxide]
≤ 1000 | < 500 |  | < 100 | ≤ 1000 | < 500 | < 50 | 0.91 | COc1nc2ncnc(N[C@H](C)c3cccc(C(F)(F)F)c3C)c2cc1N1CCN(C(C)C)CC1 [Compound 376, (R)-6-(4-isopropylpiperazin-1-yl)-7-methoxy-N-(1-(2-methyl-3-(trifluoromethyl)phenyl)ethyl)pyrido [2,3-d]pyrimidin-4-anune]
≤ 1000 | < 500 |  | < 100 | ≤ 1000 | < 500 | < 50 | 0.14 | COc1nc2nc(C)nc(N[C@H](C)c3cccc(C(F)(F)F)c3C)c2cc1N1CCN(C2CCOCC2)CC1 [Compound 378, (R)-7-methoxy-2-methyl-N-(1-(2-methyl-3-(trifluoromethyl)phenyl)ethyl)-6-(4-(tetrahydro-2H-pyran-4-yl)piperazin-1-yl)pyrido[2,3-d]pyrimidin-4-amine]
